Each structure is given as a SMILES string.

Series [1] concerns peripheral blood lymphocyte (PBL) count. Nature of the series: Rat peripheral lymphocyte lowering (PLL) assay. It counts as in vivo. The conditions noted are these: male Sprague-Dawley rats, 1.00 mg/kg oral dose, 5 hours post-dose, vs vehicle; FIG. 8. Here is the method: Male Sprague-Dawley rats (7 weeks of age at start of study) (Charles River Laboratories) were housed two per cage and maintained in a humidity-controlled (40-60%) and temperature-controlled (68-72° F.) facility on a 12 h:12 h light/dark cycle (lights on at 6:30 am) with free access to food (Harlan Teklad, Orange, Calif., Rodent Diet 8604) and water. Rats were allowed one week of habituation to the animal facility before testing.
(§1) Rats were given a 1.00 mg/kg oral dose of the 2nd enantiomer of compound 12 (isolated after resolution of compound 12 by HPLC, with a retention time of 13.9 min per the conditions reported in Example 1.29) or dosing vehicle (0.5% methylcellulose in sterile water) in a total volume of 1.00 mL/kg. Peripheral blood samples were collected at 5 hours post-dose. Blood was collected via indwelling catheter. A complete cell count (CBC), including lymphocyte count, was obtained using a CELL-DYN® 3700 (Abbott Laboratories, Abbott Park, Ill.) instrument. Results are presented in FIG. 8, in which peripheral blood lymphocyte (PBL) count is shown for the 5 hour group.

For series [2], the system named is mean ankle diameter. In words: Collagen-induced arthritis in rats (ankle diameter). The format is in vivo, rat. Conditions: female Lewis rats, collagen injections day 0 and 6, p.o. q.d. day 0-16, 0.3, 1 and 3 mg/kg; FIG. 9. Here is the method: Female Lewis rats were used in this study. Acclimated animals were anesthetized with isoflurane and given the first collagen injection (day 0). On day 6, they were anesthetized again for the second collagen injection. Collagen was prepared by making a 4 mg/mL solution in 0.01 N acetic acid. Equal volumes of collagen and incomplete Freund's adjuvant were emulsified by hand mixing until a bead of this material held its form when placed in water. Each animal received 300 μL of the mixture each time, spread over 3 subcutaneous sites on the back.
Treatment (p.o., q.d., 5 mL/kg dosing volume) began on day 0 and continued through day 16 with vehicle or compounds given at 24 h intervals. Rats were weighed on days 0, 3, 6 and 9 through 17 and caliper measurements of the ankles taken on days 9 through 17. The 2nd enantiomer of compound 12 (isolated after resolution of compound 12 by HPLC, with a retention time of 13.9 min per the conditions reported in Example 1.29) was dosed at 0.3, 1 and 3 mg/kg.

Series [3] concerns peripheral blood lymphocyte (PBL) count. In words: Mouse peripheral lymphocyte lowering (PLL) assay. The format is in vivo. Conditions: male BALB/c mice, 1.00 mg/kg oral dose, 5 hours post-dose, vs vehicle; FIG. 7. The method, then:
Male BALB/c mice (Charles River Laboratories, Wilmington, Mass.) were housed four per cage and maintained in a humidity-controlled (40 to 60%) and temperature-controlled (68 to 72° F.) facility on a 12 h:12 h light/dark cycle (lights on at 6:30 am) with free access to food (Harlan Teklad, Orange, Calif., Rodent Diet 8604) and water. Mice were allowed one week of habituation to the animal facility before testing.
Mice were given an oral dose of Compound 5, Compound 7 or dosing vehicle (0.5% methylcellulose) in a total volume of 10 mL/kg. Peripheral blood samples were collected at 5 hours post-dose. The mice were anesthetized with isoflurane and blood was collected via cardiac puncture. A complete cell count (CBC), including lymphocyte count, was obtained using a CELL-DYN® 3700 (Abbott Laboratories, Abbott Park, Ill.) instrument. Results are presented in FIGS. 1 and 2, in which peripheral blood lymphocyte (PBL) count is shown for the 5 hour group.
as §1, with “Mice were” for “Rats were”, “of 10” for “of 1.00”, “post-dose. The mice were anesthetized with isoflurane and blood” for “post-dose. Blood”, “via cardiac puncture.” for “via indwelling catheter.”, “FIG. 7,” for “FIG. 8,”

A short description of series [4]: Cardiac telemetry / bradycardia assay in the rat. The format is in vivo. The conditions noted are these: male Sprague-Dawley rats, oral, vehicle PEG400, heart rate over a 120 min period; FIG. 11. Here is the method:
Male Sprague-Dawley rats (250-300 g at time of surgery) were implanted by Charles River Laboratories (Wilmington, Mass.) with cardiac transmitting devices (Data Sciences PhysioTel C50-PXT) into the peritoneal space, with a pressure-sensing catheter inserted into the descending aorta. Rats are allowed at least one week to recover. Rats were housed in individual cages and maintained in a humidity-controlled (30-70%) and temperature-controlled (20-22° C.) facility on a 12 h:12 h light/dark cycle (lights on at 7:00 am) with free access to food (Harlan-Teklad, Orange, Calif., Rodent Diet 8604) and water. Rats were allowed one week of habituation to the animal facility before testing.
The implanted transmitting devices transmitted continuous measurements of blood pressure (systolic, diastolic, mean arterial, pulse), heart rate, body temperature, and motor activity in freely moving conscious animals. […] Telemetry recording occurred over a 21-h period, starting at noon and continuing until 9:00 am the following day. […]
By way of illustration and not limitation, the rats were administered vehicle (PEG 400) and the 2nd enantiomer of compound 12 (isolated after resolution of compound 12 by HPLC, with a retention time of 13.9 min per the conditions reported in Example 1.29) and heart rate was then measured over a 120 min period.

The test system of series [5] is MOG-induced EAE. Nature of the series: MOG-induced experimental autoimmune encephalomyelitis (EAE) in mice. The format is in vivo, mouse. Conditions: female C57BL/6 mice, oral once a day day 3 to day 21, 0.3, 1 and 3 mg/kg; FIG. 10. Here is the method:
Female C57BL/6 mice (8 to 10 weeks of age at start of study) (Jackson Laboratory, Bar Harbor, Me.) were housed four per cage and maintained in a humidity-controlled (40-60%) and temperature-controlled (68-72° F.) facility on a 12 h:12 h light/dark cycle (lights on at 6:30 am) with free access to food (Harlan Teklad, Orange, Calif., Rodent Diet 8604) and water. Mice were allowed one week of habituation to the animal facility before testing.
Mice were immunized subcutaneously, 50 μL per hind flank, with a total of 100 μg MOG35-55 peptide emulsified 1:1 with Complete Freund's adjuvant containing 4 mg/mL heat-killed Mycobacterium tuberculosis. […]
Severity of disease symptoms was scored as follows (in increasing order of severity): 0=normal; 1=limp tail OR hind limb weakness; 2=limp tail AND limb weakness/weakness of 2 or more limbs; 3=severe limb weakness or single limb paralysis; 4=paralysis of 2 or more limbs; 5=death.
Mice were dosed orally, with vehicle or the 2nd enantiomer of compound 12 (isolated after resolution of compound 12 by HPLC, with a retention time of 13.9 min per the conditions reported in Example 1.29), once a day from day 3 until day 21. […] Mice were monitored daily from day 7 onward for disease symptoms. After the last dose on day 21, disease progression was monitored daily for 2 more weeks.

Consider `O=C(O)C[C@H]1CCc2c1[nH]c1ccc(OCc3ccc(C4CCCC4)c(C(F)(F)F)c3)cc21` [2nd enantiomer of compound 12, (R)-2-(7-(4-cyclopentyl-3-(trifluoromethyl)benzyloxy)-1,2,3,4-tetrahydrocyclopenta[b]indol-3-yl)acetic acid], for which the “activity for inducing PBL lowering (lymphopenia)” value in series [1] and in series [3] was “exhibited activity for inducing PBL lowering (lymphopenia)” each time. Moreover, the “reduction of mean ankle diameter” value in series [2] is given as “exhibited activity for reducing mean ankle diameter”. Besides, in series [4], the “reduction of heart rate (bradycardia)” value was “no or substantially no reduction of heart rate”. Moreover, in series [5], the “reduction of severity of disease symptoms (clinical score) in EAE” value is “exhibited activity in the mouse EAE assay”.
